Measurements as given in ChEMBL document CHEMBL4308841, “Synthesis, in vitro antiproliferative activity, and kinase inhibitory effects of pyrazole-containing diarylureas and diarylamides” (Eur J Med Chem, 2018).

Experiments:
NCI-H23 = experiment: Growth inhibition of human NCI-H23 cells assessed as cell growth at 0.1 uM incubated for 48 hrs by sulforhodamine B assay relative to control; assay type: functional; details: NCI-H23, 48 h, read-out: Activity
HCT-15 = experiment: Growth inhibition of human HCT15 cells assessed as cell growth at 0.01 uM incubated for 48 hrs by sulforhodamine B assay relative to control; assay type: functional; details: HCT-15, 48 h, read-out: Activity
NCI-H322M [1] = experiment: Growth inhibition of human NCI-H322M cells assessed as cell growth at 100 uM incubated for 48 hrs by sulforhodamine B assay relative to control; assay type: functional; details: read-out: Activity
MDA-MB-468 = experiment: Growth inhibition of human MDA-MB-468 cells incubated for 48 hrs by sulforhodamine B assay; assay type: functional, cell-based; details: MDA-MB-468, 48 h
SK-MEL-2 [2] = experiment: Growth inhibition of human SK-MEL-2 cells assessed as cell growth at 1 uM incubated for 48 hrs by sulforhodamine B assay relative to control; assay type: functional; details: SK-MEL-2, 48 h, read-out: Activity
CCRF-CEM = experiment: Growth inhibition of human CCRF-CEM cells assessed as cell growth at 0.01 uM incubated for 48 hrs by sulforhodamine B assay relative to control; assay type: functional; details: read-out: Activity
COLO 205 [3] = experiment: Growth inhibition of human COLO205 cells assessed as cell growth at 0.1 uM incubated for 48 hrs by sulforhodamine B assay relative to control; assay type: functional; details: COLO 205, 48 h, read-out: Activity
SR = experiment: Growth inhibition of human SR cells assessed as cell growth at 0.1 uM incubated for 48 hrs by sulforhodamine B assay relative to control; assay type: functional; details: read-out: Activity
PC-3 [4] = experiment: Growth inhibition of human PC3 cells assessed as cell growth at 0.01 uM incubated for 48 hrs by sulforhodamine B assay relative to control; assay type: functional; details: PC-3, 48 h, read-out: Activity
MDA-MB-231 = experiment: Growth inhibition of human MDA-MB-231 cells incubated for 48 hrs by sulforhodamine B assay; assay type: functional, cell-based; details: MDA-MB-231, 48 h
Malme-3M = experiment: Growth inhibition of human MALME-3M cells assessed as cell growth at 1 uM incubated for 48 hrs by sulforhodamine B assay relative to control; assay type: functional; details: read-out: Activity
NCI-H460 = experiment: Growth inhibition of human NCI-H460 cells assessed as cell growth at 100 uM incubated for 48 hrs by sulforhodamine B assay relative to control; assay type: functional; details: NCI-H460, 48 h, read-out: Activity
SNB-19 = experiment: Growth inhibition of human SNB19 cells incubated for 48 hrs by sulforhodamine B assay; assay type: functional, cell-based; details: SNB-19, 48 h
NCI-H226 = experiment: Growth inhibition of human NCI-H226 cells assessed as cell growth at 0.1 uM incubated for 48 hrs by sulforhodamine B assay relative to control; assay type: functional; details: NCI-H226, 48 h, read-out: Activity
NCI-H522 = experiment: Growth inhibition of human NCI-H522 cells assessed as cell growth at 0.01 uM incubated for 48 hrs by sulforhodamine B assay relative to control; assay type: functional; details: NCI-H522, 48 h, read-out: Activity
CAKI-1 = experiment: Growth inhibition of human Caki1 cells incubated for 48 hrs by sulforhodamine B assay; assay type: functional, cell-based; details: CAKI-1, 48 h
UO-31 = experiment: Growth inhibition of human UO31 cells assessed as cell growth at 100 uM incubated for 48 hrs by sulforhodamine B assay relative to control; assay type: functional; details: UO-31, 48 h, read-out: Activity
NCI/ADR-RES = experiment: Growth inhibition of human NCI/ADR-RES cells assessed as cell growth at 0.1 uM incubated for 48 hrs by sulforhodamine B assay relative to control; assay type: functional; details: read-out: Activity
COLO 205 [5] = experiment: Growth inhibition of human COLO205 cells assessed as cell growth at 0.01 uM incubated for 48 hrs by sulforhodamine B assay relative to control; assay type: functional; details: COLO 205, 48 h, read-out: Activity
PC-3 [6] = experiment: Growth inhibition of human PC3 cells assessed as cell growth at 0.1 uM incubated for 48 hrs by sulforhodamine B assay relative to control; assay type: functional; details: PC-3, 48 h, read-out: Activity
SF-295 = experiment: Growth inhibition of human SF295 cells assessed as cell growth at 0.1 uM incubated for 48 hrs by sulforhodamine B assay relative to control; assay type: functional; details: SF-295, 48 h, read-out: Activity
NCI-H322M [7] = experiment: Growth inhibition of human NCI-H322M cells assessed as cell growth at 0.01 uM incubated for 48 hrs by sulforhodamine B assay relative to control; assay type: functional; details: read-out: Activity
A549 = experiment: Growth inhibition of human A549/ATCC cells assessed as cell growth at 0.1 uM incubated for 48 hrs by sulforhodamine B assay relative to control; assay type: functional; details: A549, 48 h, read-out: Activity
SW-620 = experiment: Growth inhibition of human SW620 cells incubated for 48 hrs by sulforhodamine B assay; assay type: functional, cell-based; details: SW-620, 48 h
SF-539 = experiment: Growth inhibition of human SF539 cells assessed as cell growth at 100 uM incubated for 48 hrs by sulforhodamine B assay relative to control; assay type: functional; details: SF-539, 48 h, read-out: Activity
OVCAR-4 [8] = experiment: Growth inhibition of human OVCAR4 cells assessed as cell growth at 100 uM incubated for 48 hrs by sulforhodamine B assay relative to control; assay type: functional; details: OVCAR-4, 48 h, read-out: Activity
SK-MEL-2 [9] = experiment: Growth inhibition of human SK-MEL-2 cells assessed as cell growth at 10 uM incubated for 48 hrs by sulforhodamine B assay relative to control; assay type: functional; details: SK-MEL-2, 48 h, read-out: Activity
OVCAR-4 [10] = experiment: Growth inhibition of human OVCAR4 cells incubated for 48 hrs by sulforhodamine B assay; assay type: functional, cell-based; details: OVCAR-4, 48 h
MDA-MB-435 = experiment: Growth inhibition of human MDA-MB-435 cells assessed as cell growth at 100 uM incubated for 48 hrs by sulforhodamine B assay relative to control; assay type: functional; details: MDA-MB-435, 48 h, read-out: Activity
T47D = experiment: Growth inhibition of human T47D cells assessed as cell growth at 1 uM incubated for 48 hrs by sulforhodamine B assay relative to control; assay type: functional; details: read-out: Activity
[11] = read-out: LC50 (the source's name)
[12] = read-out: pLC50 (the source's name) (converted)

O=C(Nc1cccc(-n2cc(-c3ccncc3)c(-c3cc(O)cc(Cl)c3)n2)c1)c1cc(C(F)(F)F)cc(C(F)(F)F)c1
growth at 0.1 µM (NCI-H23): 95%
growth at 0.01 µM (HCT-15): 96%
growth at 100 µM (NCI-H322M [1]): 13%
IC50 (MDA-MB-468): 3.1 µM
GI50 (MDA-MB-468; read-out: GI50): 3.1 µM
CC50 (MDA-MB-468; [11]): > 100 µM
TGI (MDA-MB-468; read-out: TGI): > 100 µM
GI50 (MDA-MB-468; read-out: pGI50 (converted)): 3.09 µM
CC50 (MDA-MB-468; [12]): > 100 µM
TGI (MDA-MB-468; read-out: pTGI (converted)): > 100 µM
growth at 1 µM (SK-MEL-2 [2]): 106%
growth at 0.01 µM (CCRF-CEM): 96%
growth at 0.1 µM (COLO 205 [3]): 102%
growth at 0.1 µM (SR): 94%
growth at 0.01 µM (PC-3 [4]): 95%
GI50 (MDA-MB-231; read-out: GI50): 1.42 µM
CC50 (MDA-MB-231; [11]): 77.8 µM
TGI (MDA-MB-231; read-out: TGI): 33.2 µM
GI50 (MDA-MB-231; read-out: pGI50 (converted)): 1.41 µM
CC50 (MDA-MB-231; [12]): 7.76 µM
TGI (MDA-MB-231; read-out: pTGI (converted)): 3.31 µM
growth at 1 µM (Malme-3M): 59%
growth at 100 µM (NCI-H460): 1%
GI50 (SNB-19; read-out: GI50): 7.03 µM
CC50 (SNB-19; [11]): > 100 µM
TGI (SNB-19; read-out: TGI): > 100 µM
GI50 (SNB-19; read-out: pGI50 (converted)): 7.08 µM
CC50 (SNB-19; [12]): > 100 µM
TGI (SNB-19; read-out: pTGI (converted)): > 100 µM
growth at 0.1 µM (NCI-H226): 95%
growth at 0.01 µM (NCI-H522): 93%
GI50 (CAKI-1; read-out: GI50): 3.57 µM
CC50 (CAKI-1; [11]): > 100 µM
TGI (CAKI-1; read-out: TGI): > 100 µM
GI50 (CAKI-1; read-out: pGI50 (converted)): 3.63 µM
CC50 (CAKI-1; [12]): > 100 µM
TGI (CAKI-1; read-out: pTGI (converted)): > 100 µM
growth at 100 µM (UO-31): 13%
growth at 0.1 µM (NCI/ADR-RES): 100%
growth at 0.01 µM (COLO 205 [5]): 102%
growth at 0.1 µM (PC-3 [6]): 93%
growth at 0.1 µM (SF-295): 89%
growth at 0.01 µM (NCI-H322M [7]): 103%
growth at 0.1 µM (A549): 95%
GI50 (SW-620; read-out: GI50): 4.48 µM
LC50 (SW-620; read-out: LC50): > 100 µM
TGI (SW-620; read-out: TGI): > 100 µM
GI50 (SW-620; read-out: pGI50 (converted)): 4.47 µM
LC50 (SW-620; read-out: pLC50 (converted)): > 100 µM
TGI (SW-620; read-out: pTGI (converted)): > 100 µM
growth at 100 µM (SF-539): -13%
growth at 100 µM (OVCAR-4 [8]): 15%
growth at 10 µM (SK-MEL-2 [9]): 57.8%
GI50 (OVCAR-4 [10]; read-out: GI50): 8.53 µM
CC50 (OVCAR-4 [10]; [11]): > 100 µM
TGI (OVCAR-4 [10]; read-out: TGI): > 100 µM
GI50 (OVCAR-4 [10]; read-out: pGI50 (converted)): 8.51 µM
CC50 (OVCAR-4 [10]; [12]): > 100 µM
TGI (OVCAR-4 [10]; read-out: pTGI (converted)): > 100 µM
growth at 100 µM (MDA-MB-435): 3%
growth at 1 µM (T47D): 57%
